How the values were obtained:
[1] = target: T1, hERG (Kv11.1) (Homo sapiens, UniProt Q12809); assay: whole-cell patch clamp of I Kr tail current in hiPSC-CMs; format: cell-based
T1 construct: gene KCNH2

[2] = target: T1, hERG (Kv11.1); assay: whole-cell patch clamp: hERG-HEK293 cells ([…]) and I Kr in hiPSC-CMs (IC50); format: cell-based

T1 sequence (Q12809 whole entry): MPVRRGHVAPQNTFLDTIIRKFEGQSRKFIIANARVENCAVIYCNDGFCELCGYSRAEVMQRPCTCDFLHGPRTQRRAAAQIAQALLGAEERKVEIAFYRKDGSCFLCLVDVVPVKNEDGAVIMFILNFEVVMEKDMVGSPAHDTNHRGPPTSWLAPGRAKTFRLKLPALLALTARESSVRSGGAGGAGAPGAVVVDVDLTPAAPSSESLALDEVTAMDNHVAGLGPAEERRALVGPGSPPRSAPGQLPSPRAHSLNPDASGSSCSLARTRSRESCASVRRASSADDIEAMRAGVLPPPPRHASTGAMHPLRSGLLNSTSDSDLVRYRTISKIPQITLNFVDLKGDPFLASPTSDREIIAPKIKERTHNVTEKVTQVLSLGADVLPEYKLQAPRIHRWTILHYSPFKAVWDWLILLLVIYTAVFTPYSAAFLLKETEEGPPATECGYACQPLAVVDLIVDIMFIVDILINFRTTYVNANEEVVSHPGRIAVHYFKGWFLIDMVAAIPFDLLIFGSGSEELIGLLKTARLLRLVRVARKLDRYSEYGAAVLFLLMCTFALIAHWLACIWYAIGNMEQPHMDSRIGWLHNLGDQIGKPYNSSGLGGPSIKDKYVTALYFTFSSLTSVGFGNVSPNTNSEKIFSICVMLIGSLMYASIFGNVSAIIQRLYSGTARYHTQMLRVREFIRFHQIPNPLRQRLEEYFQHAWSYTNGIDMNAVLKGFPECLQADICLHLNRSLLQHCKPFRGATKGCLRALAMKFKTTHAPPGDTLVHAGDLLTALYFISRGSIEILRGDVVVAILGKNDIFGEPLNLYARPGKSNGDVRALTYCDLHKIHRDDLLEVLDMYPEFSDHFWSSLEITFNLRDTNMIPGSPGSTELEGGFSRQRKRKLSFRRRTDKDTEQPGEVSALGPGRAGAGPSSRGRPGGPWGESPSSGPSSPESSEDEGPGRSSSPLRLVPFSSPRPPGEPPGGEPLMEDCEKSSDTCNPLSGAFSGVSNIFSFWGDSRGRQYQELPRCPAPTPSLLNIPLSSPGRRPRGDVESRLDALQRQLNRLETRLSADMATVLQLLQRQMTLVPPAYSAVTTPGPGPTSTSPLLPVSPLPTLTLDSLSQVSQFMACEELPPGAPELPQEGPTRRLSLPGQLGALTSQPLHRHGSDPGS

Structure (SMILES)	IC50 [1] [nM]	IC50 [2] [nM]
CC[C@@H]1CN2CCc3c([nH]c4cccc(OC)c34)[C@H]2C[C@@H]1/C(=C\OC)C(=O)OC [Speciociliatine]	1480	–
CC[C@H]1CN2CCc3c([nH]c4cccc(OC)c34)[C@@H]2C[C@@H]1/C(=C\OC)C(=O)OC [Speciogynine]	1020	–
C=C[C@H]1CN2CCc3c([nH]c4cccc(OC)c34)[C@@H]2C[C@@H]1/C(=C\OC)C(=O)OC [Paynantheine]	2470	–
CC[C@@H]1CN2CCc3c([nH]c4cccc(OC)c34)[C@@H]2C[C@@H]1/C(=C\OC)C(=O)OC [Mitragynine]	–	910
